Consider 17 compounds from patent US20240398805A1, “QUINAZOLINE DERIVED COMPOUNDS AS EGFR INHIBITORS AND THEIR USES THEREOF” (ACCUTAR BIOTECHNOLOGY INC., priority 2021, published 2024).

Format in all cases: cell-based
Assay [1] concerns HCC827-ASV cells (human EGFR exon 20 insertion mutant A769_D770insASV). Nature of the assay: Cell growth inhibition (CellTiter-Glo, 3 days) in HCC827-ASV. The note with it: 72 h, 3 days after administration. In outline: (§1)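 Growth inhibition used a CellTiter-Glo luminescence read-out after 3 days of compound exposure at various concentrations. Cells were plated the day before at 5000/well in RPMI plus 10% FBS. The lines are HCC827 transduced by lentivirus with codon-optimized EGFR ASV or ERBB2 YVMA exon 20 insertions.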
On the technique in general: In ATP-based viability assays light output follows the ATP content of the culture.

The subject of assay [2] is A431 cells. The assay is described as follows: Cell growth inhibition (CellTiter-Glo, 3 days) in A431. The note with it: Homo sapiens, A-431, 72 h, 3 days after administration. The procedure, abridged: (§2)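 Growth inhibition was scored by CellTiter-Glo luminescence after 3-day compound exposure at various concentrations. Cells were plated at 5000/well the day before treatment: A431 in DMEM and HCC827 in RPMI, each with 10% FBS.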

In assay [3] the test system is HCC827-YVMA cells (human ERBB2 exon20 insertion mutant A775_G776ins YVMA). The assay is described as follows: Cell growth inhibition (CellTiter-Glo, 3 days) in HCC827-YVMA. Conditions: 72 h, 3 days after administration. In outline: as §1
Assay [4] deals with HCC827-SVD cells (human EGFR exon 20 insertion mutant D770_N771 insSVD). The assay is described as follows: Cell growth inhibition (CellTiter-Glo, 3 days) in HCC827-SVD. Conditions: 72 h, 3 days after administration. In outline:
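HCC827 cells carrying lentiviral codon-optimized EGFR D770_N771 insSVD, with endogenous EGFR knocked out by CRISPR (single clone), seeded at 5000 cells/well in RPMI with 10% FBS. Viability read by CellTiter-Glo luminescence.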

Assay [5] deals with HCC827 cells. Nature of the assay: Cell growth inhibition (CellTiter-Glo, 3 days) in HCC827. Conditions: Homo sapiens, 72 h, 3 days after administration. The procedure, abridged: as §2

As usually defined, the GI50 is the concentration at which growth is held to half of that of the control. Lower therefore signals more potent growth inhibition. For the compound `C=CC(=O)N1CCC(Nc2cc3c(Nc4ccc(Oc5ccnc(-c6ccc(C)cc6)c5)cc4F)ncnc3cc2OC)CC1` [Example 235, 1-(4-((4-((2-fluoro-4-((2-(p-tolyl)pyridin-4-yl)oxy)phenyl)amino)-7-methoxyquinazolin-6-yl)amino)piperidin-1-yl)prop-2-en-1-one], the GI50 fell in the range of 30 to 60 nM in assay [1]; 600 to 1000 nM in assay [2]; 60 to 100 nM in assay [3]; 30 to 60 nM in assay [4]; 60 to 100 nM in assay [5].

For the compound `C=CC(=O)N1CCC(Nc2cc3c(Nc4ccc(Oc5ccnc(-c6ccccn6)c5)cc4F)ncnc3cc2OC)CC1` [Example 236, 1-(4-((4-((4-([2,2′-bipyridin]-4-yloxy)-2-fluorophenyl)amino)-7-methoxyquinazolin-6-yl)amino)piperidin-1-yl)prop-2-en-1-one], the GI50 in assay [1] is under 30 nM; in assay [2], at least 1000 nM; in assay [3] it was under 30 nM; in assay [4], under 30 nM; in assay [5] it was 100 to 300 nM.

As for `C=CC(=O)N1CCC(Nc2cc3c(Nc4ccc(Oc5ccnc(-c6cccnc6)c5)cc4F)ncnc3cc2OC)CC1` [Example 237, 1-(4-((4-((4-([2,3′-bipyridin]-4-yloxy)-2-fluorophenyl)amino)-7-methoxyquinazolin-6-yl)amino)piperidin-1-yl)prop-2-en-1-one], the GI50 in assay [1] is 60 to 100 nM; in assay [2], at least 1000 nM; in assay [3], under 30 nM; in assay [4], 30 to 60 nM; in assay [5] it was 300 to 600 nM.

In the case of `C=CC(=O)N1CCC(Nc2cc3c(Nc4ccc(Oc5ccnc(-c6ccncc6)c5)cc4F)ncnc3cc2OC)CC1` [Example 238, 1-(4-((4-((4-([2,4′-bipyridin]-4-yloxy)-2-fluorophenyl)amino)-7-methoxyquinazolin-6-yl)amino)piperidin-1-yl)prop-2-en-1-one], the GI50 is under 30 nM in assay [1]; at least 1000 nM in assay [2]; under 30 nM in assay [3]; under 30 nM in assay [4]; 100 to 300 nM in assay [5].

Consider `C=CC(=O)N1CCC(Nc2cc3c(Nc4ccc(Oc5ccnc(N6CC7CCCC7C6)c5)cc4F)ncnc3cc2OC)CC1` (stereo not shown) [Example 239, 1-(4-((4-((2-fluoro-4-((2-(hexahydrocyclopenta [c]pyrrol-2(1H)-yl)pyridin-4-yl)oxy)phenyl)amino)-7-methoxyquinazolin-6-yl)amino)piperidin-1-yl)prop-2-en-1-one], for which the GI50 in assay [1] was 60 to 100 nM; in assay [2] it was 300 to 600 nM; in assay [3], 60 to 100 nM; in assay [4] it was under 30 nM; in assay [5], under 30 nM.

Take `C=CC(=O)N1CCC(Nc2cc3c(Nc4ccc(Oc5ccnc(N6CC7CN(C)CC7C6)c5)cc4F)ncnc3cc2OC)CC1` (stereo not shown) [Example 240, 1-(4-((4-((2-fluoro-4-((2-(5-methylhexahydropyrrolo[3,4-c]pyrrol-2(1H)-yl)pyridin-4-yl)oxy)phenyl)amino)-7-methoxyquinazolin-6-yl)amino)piperidin-1-yl)prop-2-en-1-one]: the GI50 is 300 to 600 nM in assay [1]; at least 1000 nM in assay [2]; 300 to 600 nM in assay [3]; 300 to 600 nM in assay [4]; 600 to 1000 nM in assay [5].

With `C=CC(=O)N1CCC(Nc2cc3c(Nc4ccc(Oc5ccnc(N6C[C@H]7CCCC[C@H]7C6)c5)cc4F)ncnc3cc2OC)CC1` [Example 241, 1-(4-((4-((2-fluoro-4-((2-((3aR,7aS)-octahydro-2H-isoindol-2-yl)pyridin-4-yl)oxy)phenyl)amino)-7-methoxyquinazolin-6-yl)amino)piperidin-1-yl)prop-2-en-1-one], the GI50 is 60 to 100 nM in assay [1]; 600 to 1000 nM in assay [2]; 60 to 100 nM in assay [3]; 30 to 60 nM in assay [4]; under 30 nM in assay [5].

`C=CC(=O)N1CCC(Nc2cc3c(Nc4ccc(Oc5ccnc(N6CCCN(C)CC6)c5)cc4F)ncnc3cc2OC)CC1` [Example 242, 1-(4-((4-((2-fluoro-4-((2-(4-methyl-1,4-diazepan-1-yl)pyridin-4-yl)oxy)phenyl)amino)-7-methoxyquinazolin-6-yl)amino)piperidin-1-yl)prop-2-en-1-one]: the concentration for 50% growth inhibition (GI50) is 100 to 300 nM in assay [1]; at least 1000 nM in assay [2]; 100 to 300 nM in assay [3]; 100 to 300 nM in assay [4]; at least 1000 nM in assay [5].

In the case of `C=CC(=O)N1CCC(Nc2cc3c(Nc4ccc(Oc5ccnc(NC6CC6)c5)cc4F)ncnc3cc2OC)CC1` [Example 244, 1-(4-((4-((4-((2-(cyclopropylamino)pyridin-4-yl)oxy)-2-fluorophenyl)amino)-7-methoxyquinazolin-6-yl)amino)piperidin-1-yl)prop-2-en-1-one], the GI50 in assay [1] is under 30 nM; in assay [2], 60 to 100 nM; in assay [3], under 30 nM; in assay [4], under 30 nM; in assay [5] it was under 30 nM.

Turning to `C=CC(=O)N1CCC(Nc2cc3c(Nc4ccc(Oc5ccnc(NC(C)(C)C)c5)cc4F)ncnc3cc2OC)CC1` [Example 245, 1-(4-((4-((4-((2-(tert-butylamino)pyridin-4-yl)oxy)-2-fluorophenyl)amino)-7-methoxyquinazolin-6-yl)amino)piperidin-1-yl)prop-2-en-1-one], the GI50 in assay [1] is under 30 nM; in assay [2], 300 to 600 nM; in assay [3] it was under 30 nM; in assay [4], 30 to 60 nM; in assay [5], 100 to 300 nM.

Take `C=CC(=O)N1CCC(Nc2cc3c(Nc4ccc(Oc5ccnc(NC6CCCC6)c5)cc4F)ncnc3cc2OC)CC1` [Example 246, 1-(4-((4-((4-((2-(cyclopentylamino)pyridin-4-yl)oxy)-2-fluorophenyl)amino)-7-methoxyquinazolin-6-yl)amino)piperidin-1-yl)prop-2-en-1-one]: the GI50 is under 30 nM in assay [1]; 100 to 300 nM in assay [2]; under 30 nM in assay [3]; under 30 nM in assay [4]; 30 to 60 nM in assay [5].

Consider `C=CC(=O)N1CCC(Nc2cc3c(Nc4ccc(Oc5ccnc(N[C@H]6CCOC6)c5)cc4F)ncnc3cc2OC)CC1` [Example 247, (S)-1-(4-((4-((2-fluoro-4-((2-((tetrahydrofuran-3-yl)amino)pyridin-4-yl)oxy)phenyl)amino)-7-methoxyquinazolin-6-yl)amino)piperidin-1-yl)prop-2-en-1-one], for which the GI50 in assay [1] fell in the range of 60 to 100 nM; in assay [2] it was 600 to 1000 nM; in assay [3] it was 30 to 60 nM; in assay [4], 60 to 100 nM; in assay [5] it was 100 to 300 nM.

Consider `C=CC(=O)N1CCC(Nc2cc3c(Nc4ccc(Oc5ccnc(N[C@@H]6CCOC6)c5)cc4F)ncnc3cc2OC)CC1` [Example 248, (R)-1-(4-((4-((2-fluoro-4-((2-((tetrahydrofuran-3-yl)amino)pyridin-4-yl)oxy)phenyl)amino)-7-methoxyquinazolin-6-yl)amino)piperidin-1-yl)prop-2-en-1-one], for which the GI50 lay in the range of 30 to 60 nM in assay [1]; 300 to 600 nM in assay [2]; 30 to 60 nM in assay [3]; 30 to 60 nM in assay [4]; 60 to 100 nM in assay [5].

As for `C=CC(=O)N1CCC(Nc2cc3c(Nc4ccc(Oc5ccnc(N6CCC[C@H]6C)c5)cc4F)ncnc3cc2OC)CC1` [Example 249, (R)-1-(4-((4-((2-fluoro-4-((2-(2-methylpyrrolidin-1-yl)pyridin-4-yl)oxy)phenyl)amino)-7-methoxyquinazolin-6-yl)amino)piperidin-1-yl)prop-2-en-1-one], the concentration for 50% growth inhibition (GI50) in assay [1] is 60 to 100 nM; in assay [2] it was 600 to 1000 nM; in assay [3] it was 60 to 100 nM; in assay [4], 30 to 60 nM; in assay [5] it was 100 to 300 nM.

Consider `C=CC(=O)N1CCC(Nc2cc3c(Nc4ccc(Oc5ccnc(N6CC[C@H](CO)C6)c5)cc4F)ncnc3cc2OC)CC1` [Example 250, (S)-1-(4-((4-((2-fluoro-4-((2-(3-(hydroxymethyl)pyrrolidin-1-yl)pyridin-4-yl)oxy)phenyl)amino)-7-methoxyquinazolin-6-yl)amino)piperidin-1-yl)prop-2-en-1-one], for which the GI50 was under 30 nM in assay [1]; at least 1000 nM in assay [2]; under 30 nM in assay [3]; under 30 nM in assay [4]; 100 to 300 nM in assay [5].

On to `C=CC(=O)N1CCC(Nc2cc3c(Nc4ccc(Oc5ccnc(N6CC[C@@H](CO)C6)c5)cc4F)ncnc3cc2OC)CC1` [Example 251, (R)-1-(4-((4-((2-fluoro-4-((2-(3-(hydroxymethyl)pyrrolidin-1-yl)pyridin-4-yl)oxy)phenyl)amino)-7-methoxyquinazolin-6-yl)amino)piperidin-1-yl)prop-2-en-1-one], for which the GI50 in assay [1] was 30 to 60 nM; in assay [2] it was 300 to 600 nM; in assay [3], 30 to 60 nM; in assay [4] it was under 30 nM; in assay [5] it was 100 to 300 nM.

For the compound `C=CC(=O)N1CCC(Nc2cc3c(Nc4ccc(Oc5ccnc(N6CCC[C@@H]6C)c5)cc4F)ncnc3cc2OC)CC1` [Example 252, (S)-1-(4-((4-((2-fluoro-4-((2-(2-methylpyrrolidin-1-yl)pyridin-4-yl)oxy)phenyl)amino)-7-methoxyquinazolin-6-yl)amino)piperidin-1-yl)prop-2-en-1-one], the GI50 in assay [1] was in the range of 30 to 60 nM; in assay [2], 600 to 1000 nM; in assay [3], 30 to 60 nM; in assay [4] it was 30 to 60 nM; in assay [5], 100 to 300 nM.
